Calls of active or inactive are those of the source. No cut-off for these calls is given here.
Tests used:
[1] = tested on: A549; assay: Cytotoxicity against human A549 cells assessed as inhibition of cell growth incubated for 24 hrs by MTT assay; type: functional, cell-based; details: A549, 24 h
[2] = Cytotoxicity against human CCD 19Lu cells assessed as inhibition of cell growth incubated for 24 hrs by MTT assay; type: toxicity, cell-based
[3] = Selectivity index, ratio of IC50 for cytotoxicity against human CCD 19Lu cells to IC50 for cytotoxicity against human A549 cells; type: toxicity, cell-based; details: CCD 19Lu cells versus A549 cells, read-out: Ratio IC50
[4] = tested on: PANC-1; assay: Cytotoxicity against human PANC-1 cells assessed as inhibition of cell growth incubated for 24 hrs by MTT assay; type: functional, cell-based; details: PANC-1, 24 h
[5] = Cytotoxicity against human hTERT-HPNE cells assessed as inhibition of cell growth incubated for 24 hrs by MTT assay; type: toxicity, cell-based
[6] = Selectivity index, ratio of IC50 for cytotoxicity against human hTERT-HPNE cells to IC50 for cytotoxicity against human PANC-1 cells; type: toxicity, cell-based; details: hTERT-HPNE cells versus PANC-1 cells, read-out: Ratio IC50
[7] = tested on: A549; assay: Inhibition of DNA synthesis in human A549 cells at 1.49 uM incubated for 24 hrs by BrdU incorporation assay relative to control; type: functional
[8] = tested on: A549; assay: Inhibition of DNA synthesis in human A549 cells at 2.98 uM incubated for 24 hrs by BrdU incorporation assay relative to control; type: functional
[9] = tested on: A549; assay: Inhibition of DNA synthesis in human A549 cells at 5.96 uM incubated for 24 hrs by BrdU incorporation assay relative to control; type: functional
[10] = tested on: PANC-1; assay: Inhibition of DNA synthesis in human PANC-1 cells at 5.96 uM incubated for 24 hrs by BrdU incorporation assay relative to control; type: functional
[11] = tested on: A549; assay: Induction of apoptosis in human A549 cells assessed as early apoptotic cells at IC50 incubated for 24 hrs by annexin V-FITC/PI staining based flow cytometry analysis (reference value: 5.6%); type: functional
[12] = tested on: A549; assay: Induction of apoptosis in human A549 cells assessed as late apoptotic cells at IC50 incubated for 24 hrs by annexin V-FITC/PI staining based flow cytometry analysis (reference value: 6.5 %); type: functional
[13] = tested on: A549; assay: Induction of apoptosis in human A549 cells assessed as total cell viability at IC50 incubated for 24 hrs by annexin V-FITC/PI staining based flow cytometry analysis (reference value: 85.6 %); type: functional
[14] = tested on: PANC-1; assay: Induction of apoptosis in human PANC-1 cells assessed as early apoptotic cells at IC50 incubated for 24 hrs by annexin V-FITC/PI staining based flow cytometry analysis (reference value: 0%); type: functional
[15] = tested on: PANC-1; assay: Induction of apoptosis in human PANC-1 cells assessed as late apoptotic cells at IC50 incubated for 24 hrs by annexin V-FITC/PI staining based flow cytometry analysis (reference value: 0.2%); type: functional
[16] = tested on: PANC-1; assay: Induction of apoptosis in human PANC-1 cells assessed as total cell viability at IC50 incubated for 24 hrs by annexin V-FITC/PI staining based flow cytometry analysis (reference value: 84.4%); type: functional
[17] = tested on: A549; assay: Induction of apoptosis in human A549 cells assessed as activation of caspase-3 by measuring caspase-3 positive cells at IC50 incubated for 24 hrs by flow cytometry analysis (reference value: 8.4%); type: functional
[18] = tested on: A549; assay: Induction of apoptosis in human A549 cells assessed as activation of caspase-3 by measuring caspase-3 negative cells at IC50 incubated for 24 hrs by flow cytometry analysis (reference value: 91.1%); type: functional
[19] = tested on: PANC-1; assay: Induction of apoptosis in human PANC-1 cells assessed as activation of caspase-3 by measuring caspase-3 positive cells at IC50 incubated for 24 hrs by flow cytometry analysis (reference value: 1.8%); type: functional
[20] = tested on: PANC-1; assay: Induction of apoptosis in human PANC-1 cells assessed as activation of caspase-3 by measuring caspase-3 negative cells at IC50 incubated for 24 hrs by flow cytometry analysis (reference value: 98.5 %); type: functional
[21] = tested on: A549; assay: Induction of mitochondrial membrane potential loss in human A549 cells assessed as polarized cells at IC50 incubated for 24 hrs by JC-1 staining based flow cytometry assay (reference value: 90.6%); type: functional
[22] = tested on: A549; assay: Induction of mitochondrial membrane potential loss in human A549 cells assessed as depolarized cells at IC50 incubated for 24 hrs by JC-1 staining based flow cytometry assay (reference value: 6.9%); type: functional
[23] = tested on: PANC-1; assay: Induction of mitochondrial membrane potential loss in human PANC-1 cells assessed as polarized cells at IC50 incubated for 24 hrs by JC-1 staining based flow cytometry assay (reference value: 92%); type: functional
[24] = tested on: PANC-1; assay: Induction of mitochondrial membrane potential loss in human PANC-1 cells assessed as depolarized cells at IC50 incubated for 24 hrs by JC-1 staining based flow cytometry assay (reference value: 5%); type: functional
[25] = tested on: A549; assay: Induction of apoptosis in human A549 cells assessed as increase in intracellular calcium level at 5.96 uM by Fluo-4-AM staining based flow cytometry analysis; type: functional, cell-based
[26] = tested on: A549; assay: Induction of morphological changes in human A549 cells assessed as cell shrinkage at 5.96 uM incubated for 24 hrs by acridine orange/ethidium bromide staining based fluorescence microscopic analysis; type: functional
[27] = tested on: A549; assay: Induction of morphological changes in human A549 cells assessed as chromatin condensation at 5.96 uM incubated for 24 hrs by acridine orange/ethidium bromide staining based fluorescence microscopic analysis; type: functional, cell-based
[28] = tested on: A549; assay: Induction of morphological changes in human A549 cells assessed as formation of apoptotic bodies at 5.96 uM incubated for 24 hrs by acridine orange/ethidium bromide staining based fluorescence microscopic analysis; type: functional, cell-based
[29] = tested on: PANC-1; assay: Induction of morphological changes in human PANC-1 cells assessed as cell shrinkage at 5.96 uM incubated for 24 hrs by acridine orange/ethidium bromide staining based fluorescence microscopic analysis; type: functional
[30] = tested on: PANC-1; assay: Induction of morphological changes in human PANC-1 cells assessed as chromatin condensation at 5.96 uM incubated for 24 hrs by acridine orange/ethidium bromide staining based fluorescence microscopic analysis; type: functional, cell-based
[31] = tested on: PANC-1; assay: Induction of morphological changes in human PANC-1 cells assessed as formation of apoptotic bodies at 5.96 uM incubated for 24 hrs by acridine orange/ethidium bromide staining based fluorescence microscopic analysis; type: functional, cell-based
[32] = molecular target: Procathepsin L (Homo sapiens) (UniProt P07711); assay: Inhibition of cathepsin L (unknown origin) at 100 uM
[33] = molecular target: Cathepsin D (Homo sapiens) (UniProt P07339); assay: Inhibition of cathepsin D (unknown origin) at 100 uM relative to control
[34] = tested on: PANC-1; assay: Potency index, ratio of cisplatin IC50 for test compound IC50 for cytotoxicity against human PANC-1 cells assessed as inhibition of cell growth incubated for 24 hrs by MTT assay; type: functional
[35] = tested on: PANC-1; assay: Inhibition of DNA synthesis in human PANC-1 cells at IC50/4 to IC50 concentration incubated for 24 hrs by BrdU incorporation assay; type: functional, cell-based
[36] = tested on: PANC-1; assay: Induction of morphological changes in human PANC-1 cells assessed as cell shrinkage at 13.58 uM incubated for 24 hrs by acridine orange/ethidium bromide staining based fluorescence microscopic analysis; type: functional
[37] = tested on: PANC-1; assay: Induction of morphological changes in human PANC-1 cells assessed as chromatin condensation at 13.58 uM incubated for 24 hrs by acridine orange/ethidium bromide staining based fluorescence microscopic analysis; type: functional, cell-based
[38] = tested on: PANC-1; assay: Induction of morphological changes in human PANC-1 cells assessed as formation of apoptotic bodies at 13.58 uM incubated for 24 hrs by acridine orange/ethidium bromide staining based fluorescence microscopic analysis; type: functional, cell-based
[39] = molecular target: Cathepsin D (Homo sapiens) (UniProt P07339); assay: Inhibition of cathepsin D (unknown origin) at 100 uM
[40] = molecular target: Procathepsin L (Homo sapiens) (UniProt P07711); assay: Inhibition of cathepsin L (unknown origin) at 100 uM relative to control

Sequence of Procathepsin L (Homo sapiens) (P07711 114-333 limits assumed): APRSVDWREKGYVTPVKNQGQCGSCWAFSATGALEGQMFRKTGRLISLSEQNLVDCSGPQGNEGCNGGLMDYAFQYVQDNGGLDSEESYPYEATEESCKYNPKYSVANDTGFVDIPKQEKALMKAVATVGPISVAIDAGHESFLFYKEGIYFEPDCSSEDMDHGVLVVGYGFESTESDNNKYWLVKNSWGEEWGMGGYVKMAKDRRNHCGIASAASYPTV
Sequence of Cathepsin D (Homo sapiens) (P07339 65-162 limits assumed): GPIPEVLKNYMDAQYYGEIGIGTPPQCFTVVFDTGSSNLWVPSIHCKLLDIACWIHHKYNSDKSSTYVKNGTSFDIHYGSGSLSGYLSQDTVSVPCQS
Sequence of Cathepsin D (Homo sapiens) (P07339 169-412 limits assumed): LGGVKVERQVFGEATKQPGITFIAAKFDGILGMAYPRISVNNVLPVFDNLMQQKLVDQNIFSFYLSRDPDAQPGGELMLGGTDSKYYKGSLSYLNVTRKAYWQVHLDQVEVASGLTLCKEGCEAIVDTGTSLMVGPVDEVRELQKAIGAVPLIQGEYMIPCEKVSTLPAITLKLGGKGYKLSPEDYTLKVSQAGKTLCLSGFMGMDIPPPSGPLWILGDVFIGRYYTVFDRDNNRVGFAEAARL

CCN(CC)c1ccc(/C=C2\Cc3cc4c(cc3C2=O)OCO4)cc1
IC50 [1]: < 11.6 µM
IC50 at 24 h [2]: > 1490 µM
selectivity ratio [3]: > 128
IC50 [4]: < 11.6 µM
IC50 at 24 h [5]: > 1490 µM
selectivity ratio [6]: > 128
inhibition at 1.49 µM [7]: 22.1%
inhibition at 2.98 µM [8]: 24.2%
inhibition at 5.96 µM [9]: 39.6%
inhibition at 5.96 µM [10]: 23.6%
Activity [11]: 26.7%
Activity [12]: 27%
Activity [13]: 38.8%
Activity [14]: 3.5%
Activity [15]: 1.5%
Activity [16]: 90.9%
Activity [17]: 3.9%
Activity [18]: 96.1%
Activity [19]: 3.1%
Activity [20]: 97.6%
Activity [21]: 65.1%
Activity [22]: 66.8%
Activity [23]: 29.7%
Activity [24]: 68.4%
Activity [25]: Active
Activity [26]: Active
Activity [27]: Active
Activity [28]: Active
Activity [29]: Active
Activity [30]: Active
Activity [31]: Active
inhibition [32]: inactive
inhibition [33]: 30.4%

O=C1/C(=C/c2ccc(-n3cncn3)cc2)Cc2cc3c(cc21)OCO3
IC50 [1]: 64.9 µM
IC50 at 24 h [2]: > 1510 µM
selectivity ratio [3]: > 23.3
IC50 [4]: 13.6 µM
IC50 at 24 h [5]: > 1510 µM
selectivity ratio [6]: > 111
Ratio IC50 [34]: 3
inhibition [35]: inactive
Activity [14]: 0.1%
Activity [15]: 0.4%
Activity [16]: 94%
Activity [19]: 9.1%
Activity [20]: 93.5%
Activity [23]: 29.5%
Activity [24]: 58.6%
Activity [36]: Active
Activity [37]: Active
Activity [38]: Active
inhibition [32]: inactive
inhibition [39]: inactive

O=C1/C(=C/c2ccc(-n3ccnc3)cc2)Cc2cc3c(cc21)OCO3
IC50 [1]: 132 µM
IC50 at 24 h [2]: > 1510 µM
selectivity ratio [3]: > 11.4
IC50 [4]: 71.1 µM
IC50 at 24 h [5]: 153 µM
selectivity ratio [6]: 2.16
inhibition [40]: 24.8%
inhibition [39]: inactive

O=C1/C(=C/c2ccc(N3CCOCC3)cc2)Cc2cc3c(cc21)OCO3
IC50 [1]: 55.8 µM
IC50 at 24 h [2]: > 1430 µM
selectivity ratio [3]: > 25.6
IC50 [4]: 219 µM
IC50 at 24 h [5]: 1210 µM
selectivity ratio [6]: 5.52
inhibition [32]: inactive
inhibition [33]: 34.9%

CC(=O)Nc1ccc(/C=C2\Cc3cc4c(cc3C2=O)OCO4)cc1
IC50 [1]: 115 µM
IC50 at 24 h [2]: > 1560 µM
selectivity ratio [3]: > 13.5
IC50 [4]: 160 µM
IC50 at 24 h [5]: 57 µM
inhibition [32]: inactive
inhibition [39]: inactive

CN1CCN(c2ccc(/C=C3\Cc4cc5c(cc4C3=O)OCO5)cc2)CC1
IC50 [1]: 57.9 µM
IC50 at 24 h [2]: > 1380 µM
selectivity ratio [3]: > 23.8
IC50 [4]: 156 µM
IC50 at 24 h [5]: > 1380 µM
selectivity ratio [6]: > 8.82
inhibition [32]: inactive
inhibition [33]: 26%

O=C1/C(=C/c2ccc(N3CCCCC3)cc2)Cc2cc3c(cc21)OCO3
IC50 [1]: 16.3 µM
IC50 at 24 h [2]: < 11.2 µM
IC50 [4]: 360 µM
IC50 at 24 h [5]: 1180 µM
selectivity ratio [6]: 3.28
inhibition [32]: inactive
inhibition [33]: 39.1%

Reference: ChEMBL document CHEMBL5247607, “Design, synthesis and biological evaluation of a new series of arylidene indanones as small molecules for targeted therapy of non-small cell lung carcinoma and prostate cancer” (Eur J Med Chem, 2022)
